Test results published in patent publication US9745325B2, “Fused heterocyclic compound” (Takeda Pharmaceutical Company Limited, priority 2014, dated 2017).

Tests used:
CDK8/CycC = target: T1, CDK8/CycC (Homo sapiens, UniProt P49336); assay: CDK8 inhibitory activity (Kinase Tracer-236 / Eu-anti-GST fluorescence assay); type: binding; design: Percent inhibition of CDK8 activity (%): concentration or dose not given beside the values; conditions: test compound concentration given as '1 1.1.1\4' [sic]
T1 construct: purchased Carna Biosciences
Procedure: (§1) The compound of the present invention was evaluated for its CDK8 inhibitory activity and CDK19 inhibitory activity by the following method. […] The primary diluted solution was dispensed in the amount of 2 μL/well to a 384-well plate, and then, a mixed solution of Eu^3+ Cryptate conjugated mouse monoclonal antibody anti-glutathione S-transferase (Cisbio) diluted 267-fold with an assay buffer and 60 nM Kinase Tracer-236 (Life technologies) was added thereto at 2 μL/well. […] After the addition, the plate was left standing at room temperature for 1 hour, and then, the fluorescence intensity (excitation wavelength 320 nm, fluorescence wavelength 615 nm, 665 nm, delay time 50 μsec) was measured using ann EnVision plate reader (PerkinElmer). The percent inhibition of CDK8 or CDK19 activity by the test compound can be calculated according to the following formula, wherein the fluorescence intensity of a reaction solution in the absence of compound is defined as the control, and the fluorescence intensity of a reaction solution in the presence of 10 μM of control compound is defined as the blank.

CDC2L6/CycC (CDK19) = target: T2, CDC2L6/CycC (CDK19) (Homo sapiens, UniProt Q9BWU1); assay: CDK19 inhibitory activity (Kinase Tracer-236 / Eu-anti-GST fluorescence assay); type: binding; design: Percent inhibition of CDK19 activity (%): concentration or dose not given beside the values; conditions: test compound concentration given as '1 1.1.1\4' [sic]
T2 construct: purchased Carna Biosciences Inc
Procedure: as §1

[1] = test system: human multiple myeloma RPMI8226 cells; assay: Inhibitory activity against human multiple myeloma RPMI8226 cell growth (CellTiter-Glo); type: cell-based; conditions: Homo sapiens, RPMI-8226, 192 h, 1 μM test compound, cultured for 8 days; read-out: Percent inhibition of RPMI8226 cell growth (%)
Procedure: The compound of the present invention was evaluated for its inhibitory activity against human multiple myeloma RPMI8226 cell growth by the following method.
A suspension of human multiple myeloma RPMI8226 cells (purchased from the Health Protection Agency) was inoculated at 40 μL (300 cells/well) to a 384-well plate and cultured at 37° C. for 1 day in a 5% CO2 incubator. After the culture, each test compound solution was added thereto at a test concentration of 1 μM using TECAN D300, and the cells were further cultured for 8 days. After the culture, CellTiter-Glo™ Luminescent Cell Viability Assay reagent (Promega) was added at 40 μL/well to a 384-well plate, and the amount of luminescence was measured using a luminometer. Inhibitory activity against human multiple myeloma RPMI8226 cell growth (percent inhibition (%)) of the test compound was calculated according to the following formula, which is based on the hypothesis that the amount of residual ATP reflects the number of cells. In this formula, 100% control represents the amount of luminescence from a well with only 0.1% DMSO added. Percent inhibition (%)=(1−(amount of luminescence of the test compound)÷(100% control))×100

T1 sequence (P49336 whole entry): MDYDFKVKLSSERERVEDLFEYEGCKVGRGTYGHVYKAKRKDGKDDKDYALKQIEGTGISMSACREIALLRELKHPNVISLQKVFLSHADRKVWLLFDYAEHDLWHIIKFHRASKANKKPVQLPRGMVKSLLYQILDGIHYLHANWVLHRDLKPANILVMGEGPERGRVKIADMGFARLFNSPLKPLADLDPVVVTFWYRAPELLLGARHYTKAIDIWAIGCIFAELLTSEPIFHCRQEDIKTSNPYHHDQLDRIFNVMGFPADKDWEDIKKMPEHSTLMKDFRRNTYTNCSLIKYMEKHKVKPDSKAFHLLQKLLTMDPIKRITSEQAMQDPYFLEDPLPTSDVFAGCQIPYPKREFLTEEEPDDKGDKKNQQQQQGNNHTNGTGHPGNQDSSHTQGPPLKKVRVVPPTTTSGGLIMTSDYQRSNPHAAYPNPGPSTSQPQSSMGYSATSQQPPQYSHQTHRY
T1 sequence (P24863 whole entry partner): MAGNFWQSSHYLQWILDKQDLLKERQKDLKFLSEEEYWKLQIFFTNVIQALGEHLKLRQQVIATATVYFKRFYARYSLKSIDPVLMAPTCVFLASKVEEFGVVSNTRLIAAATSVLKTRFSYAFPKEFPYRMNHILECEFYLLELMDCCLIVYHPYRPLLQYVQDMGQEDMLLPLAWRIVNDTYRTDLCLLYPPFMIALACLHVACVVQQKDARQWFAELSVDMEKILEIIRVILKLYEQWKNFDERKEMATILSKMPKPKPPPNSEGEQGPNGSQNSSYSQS
T2 sequence (Q9BWU1 whole entry): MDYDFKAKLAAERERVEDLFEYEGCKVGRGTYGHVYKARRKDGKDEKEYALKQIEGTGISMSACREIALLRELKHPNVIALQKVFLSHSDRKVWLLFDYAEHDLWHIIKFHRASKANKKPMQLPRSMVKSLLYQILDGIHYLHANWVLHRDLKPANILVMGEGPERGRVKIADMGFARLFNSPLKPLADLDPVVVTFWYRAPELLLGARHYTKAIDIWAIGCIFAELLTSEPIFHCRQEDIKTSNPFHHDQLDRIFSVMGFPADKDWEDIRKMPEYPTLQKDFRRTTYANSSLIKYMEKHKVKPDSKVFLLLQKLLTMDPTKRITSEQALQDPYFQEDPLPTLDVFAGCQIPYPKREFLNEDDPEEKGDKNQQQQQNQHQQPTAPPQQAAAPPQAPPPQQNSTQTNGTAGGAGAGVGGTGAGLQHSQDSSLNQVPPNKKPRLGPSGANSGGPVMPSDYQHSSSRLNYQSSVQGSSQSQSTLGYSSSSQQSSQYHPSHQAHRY
T2 sequence (P24863 whole entry partner): as the sequence (P24863 whole entry partner) above

Structure (SMILES) | Percent inhibition of CDK8 activity (%) (CDK8/CycC) | Percent inhibition of CDK19 activity (%) (CDC2L6/CycC (CDK19)) | inhibition at 1 µM [1] [%]
Cc1nc(N)ccc1Oc1sc(C(N)=O)c2c1-c1sncc1CC2 [Example 29, 8-((6-Amino-2-methylpyridin-3-yl)oxy)-4,5-dihydrothieno[3,4-g][1,2]benzothiazole-6-carboxamide] | 98 | 100 | 70
Cc1nc(NC(=O)C2CC2)ccc1Oc1sc(C(N)=O)c2c1-c1sncc1CC2 [Example 30, 8-((6-((Cyclopropylcarbonyl)amino)-2-methylpyridin-3-yl)oxy)-4,5-dihydrothieno[3,4-g][1,2]benzothiazole-6-carboxamide] | 104 | 102 | 71
Cc1nc(NC(=O)C2(O)CC2)ccc1Oc1sc(C(N)=O)c2c1-c1sncc1CC2 [Example 31, 8-((6-(((1-Hydroxycyclopropyl)carbonyl)amino)-2-methylpyridin-3-yl)oxy)-4,5-dihydrothieno[3,4-g][1,2]benzothiazole-6-carboxamide] | 103 | 101 | 59
NC(=O)c1sc(Oc2ccc(=O)[nH]c2)c2c1CCc1cnsc1-2 [Example 33, 8-((6-Oxo-1,6-dihydropyridin-3-yl)oxy)-4,5-dihydrothieno[3,4-g][1,2]benzothiazole-6-carboxamide] | 101 | 99 | 69
CON(C)C(=O)c1sc(Oc2cccnc2C)c2c1CCc1cnsc1-2 [Example 34, N-Methoxy-N-methyl-8-((2-methylpyridin-3-yl)oxy)-4,5-dihydrothieno[3,4-g][1,2]benzothiazole-6-carboxamide] | 100 | 98 | 50
Cc1ncccc1Oc1sc(C(=O)Nc2ncco2)c2c1-c1sncc1CC2 [Example 37, 8-((2-Methylpyridin-3-yl)oxy)-N-(1,3-oxazol-2-yl)-4,5-dihydrothieno[3,4-g][1,2]benzothiazole-6-carboxamide] | 95 | 94 | 73
Cc1ncccc1Oc1sc(C(=O)NO)c2c1-c1sncc1CC2 [Example 38, N-Hydroxy-8-((2-methylpyridin-3-yl)oxy)-4,5-dihydrothieno[3,4-g][1,2]benzothiazole-6-carboxamide] | 97 | 100 | 67
CC(=O)c1sc(Oc2cccnc2C)c2c1CCc1cnsc1-2 [Example 39, 1-(8-((2-Methylpyridin-3-yl)oxy)-4,5-dihydrothieno[3,4-g][1,2]benzothiazol-6-yl)ethanone] | 97 | 95 | 60
Cc1ncccc1Oc1sc(C#N)c2c1-c1sncc1CC2 [Example 40, 8-((2-Methylpyridin-3-yl)oxy)-4,5-dihydrothieno[3,4-g][1,2]benzothiazole-6-carbonitrile] | 69 | 58 | 61
Cc1ncccc1Oc1sc(C(N)=O)c2c1-c1snnc1CC2 [Example 43, 8-((2-Methylpyridin-3-yl)oxy)-4,5-dihydrothieno[3,4-g][1,2,3]benzothiadiazole-6-carboxamide] | 103 | 93 | 49
Cc1nn(C)cc1Oc1sc(C(N)=O)c2c1-c1sncc1CC2 [Example 47, 8-((1,3-Dimethyl-1H-pyrazol-4-yl)oxy)-4,5-dihydrothieno[3,4-g][1,2] benzothiazole-6-carboxamide] | 105 | 100 | 57
CC(C)S(=O)(=O)c1ccc(Oc2sc(C(N)=O)c3c2-c2sncc2CC3)cc1 [Example 50, 8-(4-(isopropylsulfonyl)phenoxy)-4,5-dihydrothieno[3,4-g][1,2]benzothiazole-6-carboxamide] | 99 | 99 | 58
CCCSc1sc(C(N)=O)c2c1-c1sncc1CC2 [Example 52, 8-(Propylsulfanyl)-4,5-dihydrothieno [3,4-g][1,2]benzothiazole-6-carboxamide] | 98 | 95 | 65
CS(=O)(=O)c1ccc(Oc2sc(C(N)=O)c3c2-c2sncc2CC3)cc1 [Example 53, 8-(4-(Methylsulfonyl)phenoxy)-4,5-dihydrothieno[3,4-g][1,2]benzothiazole-6-carboxamide] | 100 | 99 | 61
Cc1ncccc1Oc1sc(C(=O)NOCc2ccccc2)c2c1-c1sncc1CC2 [Example 58, N-(Benzyloxy)-8-((2-methylpyridin-3-yl)oxy)-4,5-dihydrothieno[3,4-g][1,2] benzothiazole-6-carboxamide] | 100 | 101 | 49
Cc1ncccc1Oc1sc(C(=O)Nn2cccc2)c2c1-c1sncc1CC2 [Example 87, 8-((2-Methylpyridin-3-yl)oxy)-N-(1H-pyrrol-1-yl)-4,5-dihydrothieno [3,4-g][1,2]benzothiazole-6-carboxamide] | 100 | 100 | 48
NC(=O)c1sc(Oc2ccc(S(F)(F)(F)(F)F)cc2)c2c1CCc1cnsc1-2 [Example 89] | 102 | 99 | 54
NC(=O)c1sc(Oc2ccc(C(F)(F)F)cc2)c2c1CCc1cnsc1-2 [Example 90] | 102 | 102 | 55
CN(C)C(=O)c1ccc(Oc2sc(C(N)=O)c3c2-c2sncc2CC3)cn1 [Example 91] | 90 | 95 | 58
NC(=O)c1sc(Oc2cncc(Br)c2)c2c1CCc1cnsc1-2 [Example 92, 8-((5-Bromopyridin-3-yl)oxy)-4,5-dihydrothieno[3,4-g][1,2]benzothiazole-6-carboxamide] | 89 | 95 | 58
NC(=O)c1sc(Oc2ccc(N)nc2)c2c1CCc1cnsc1-2 [Example 93, 8-((6-Aminopyridin-3-yl)oxy)-4,5-dihydrothieno[3,4-g][1,2]benzothiazole-6-carboxamide] | 87 | 96 | 63
CC(=O)Nc1ccc(Oc2sc(C(N)=O)c3c2-c2sncc2CC3)cn1 [Example 94, 8-((6-Acetamidopyridin-3-yl)oxy)-4,5-dihydrothieno[3,4-g][1,2]benzothiazole-6-carboxamide] | 90 | 97 | 63
